The source of these data is patent publication US12306194B2, “Reagent for fluorescence imaging of lipid droplets in cell and tissue” (NATIONAL UNIVERSITY CORPORATION GUNMA UNIVERSITY, priority 2019, dated 2025).

Experiment [1] deals with adipose tissue and lipid droplets. Kind of experiment: Fluorescence imaging of adipose tissues and lipid droplets in a mouse. The following applies: 50 nmol. It counts as in vivo, mouse (BALB/cAJcl). Here is the method:
Fluorescence imaging of lipid droplets in a body tissue, and of an adipose tissue, using PC6S is described below. […] Therefore, PC6S cannot be administered to mice. In view of this, 5 mM stock solution was added (at 10% in terms of the volume ratio) to physiological saline supplemented with 10% bovine serum albumin. […] Regarding administration of MNs-NB, a stock solution in DMSO is directly administered to mice. Since administration of DMSO may cause death of mice from shock, the administration method in the present invention is thought to be a safer method. Here, 100 to 200 μL of 500 μM solution (50 to 100 nmol) was administered to the tail vein of a mouse under anesthesia, and a fluorescence imaging experiment was carried out using a confocal laser microscope (excitation wavelength, 488 nm; monitoring wavelength, 510 to 560 nm). In the present experiment, a microscope capable of acquiring fluorescence lifetime images as well as fluorescence intensity images (FLIM: fluorescence lifetime imaging microscope) (Simple-Tau-150-DX; Becker & Hickl) was used. The animal experiment was carried out in accordance with the animal experiment safety regulations in Gunma University.
In an individual, various adipose tissues and lipid droplets are present. Their imaging was carried out using PC6S. […]

The test system of experiment [2] is lipid droplets in a body tissue and adipose tissue. Briefly: Non-laparotomic imaging of lipid droplets in a fatty-liver model nude mouse. It counts as in vivo. The conditions noted are these: 50 nmol, tail vein. Here is the method:
Non-laparotomic imaging of lipid droplets in a body tissue, and of an adipose tissue, using PC6S is described below. A nude mouse was fed with a high-fat diet for 2 weeks to prepare a fatty-liver model mouse. PC6S (50 nmol) was administered from the tail vein of the nude mouse under anesthesia. Images were taken using a simple in vivo imaging device (Discovery (registered trademark); INDEC BioSystem) (for the nude mice lying on its back). An excitation wavelength of 450 to 490 nm and a monitoring wavelength of 520 nm or higher were employed. […] In order to confirm that the fluorescence was found from the liver, an image was taken after laparotomy. […] It was thus shown that the fluorescence imaging reagent of the present invention is useful even without laparotomy.

Another experiment deals with fixed HeLa cells. Briefly: Fluorescence imaging of fixed HeLa cells. The following applies: 100 nM, 30 minutes, HeLa fixed in 4% paraformaldehyde-phosphate buffer. It counts as cell-based. Here is the method:
The fluorescence imaging reagent of the present invention is applicable to, and allows the detection in, unfixed biological samples and living bodies. The reagent is, however, also useful for fixed samples. HeLa cells cultured in the presence of 400 μM oleic acid for 48 hours were fixed in 4% paraformaldehyde-phosphate buffer for 20 minutes, and PC6S was added thereto to a final concentration of 100 nM, followed by performing culture for 30 minutes, washing the cultured cells, and then acquiring a fluorescence imaging image using an inverted fluorescence microscope in the same manner as in Example 2.

As for `CCN(CC)c1ccc2cc3cc(-c4nc5ccccc5s4)c(=O)oc3cc2c1` [PC6S, 3-(Benzo[d]thiazol-2-yl)-8-(diethylamino)-2H-benzo[g]chromen-2-one], in experiment [1], the “fluorescence imaging of kidney” value is given as “small lipid droplets distributed in tubular cells could be imaged” and the “fluorescence imaging of subcutaneous, abdominal, pericardial adipose tissue, skeletal muscle, cardiac muscle, kidney” value is “Fluorescence derived from PC6S was found from sites containing lipid accumulated therein”. In addition, the laparotomic imaging result in experiment [2] (after laparotomy) was “Fluorescence derived from PC6S was found in the liver”. In addition, the non-laparotomic imaging entry in experiment [2] (without laparotomy) is listed as “Fluorescence derived from PC6S was found around the liver”. For the same compound, the “fluorescence detection in fixed cells” value in the experiment on fixed HeLa cells is “fluorescence of PC6S could be detected also in the fixed HeLa cells”.
